# Laboratory results published in patent US20110281951A1, “Compositions and methods for treating amyloidosis” (priority 1999, published 2011).
# Values joined by “and” are separate entries in the source; they are usually repeats but may differ in a detail not shown here. Equal entries are not always repeated.
# Experiments:
# [1] = molecular target: T1, splenic Amyloid A fibrils (Mus musculus, UniProt P05367); test: Acute AEF-AgNO3-induced amyloidosis mouse model (secondary amyloidosis); type: in vivo, mice; details: for % PC (splenic AA fibrils, % of positive control): 5 days; for Activity (in vivo, secondary amyloidosis): overall grade over the concentrations tested
# T1 construct: from tissue; host or cells: spleen of CBA/J mice (AEF/AgNO3-induced amyloidosis)
# T1 sequence (P05367 20-95 limits assumed): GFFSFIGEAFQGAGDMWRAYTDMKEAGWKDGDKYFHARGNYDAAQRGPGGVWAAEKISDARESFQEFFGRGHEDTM
# Procedure: The in vivo screening is based on the acute AEF-AgNO3-induced amyloidosis mouse model. The test is conducted on a total of 6 days and each compound administered in the drinking solution for a 5-day period.
# Female mice of CBA/J strain are individually identified, weighed and assigned to a group of 5 animals following an acclimation period. The amyloidosis is induced by intravenous injection of 100 μg of AEF (amyloid enhancing factor) concomitantly with a subcutaneous injection of 0.5 ml of 2% of a solution of AgNO3. Animals in the negative control group are injected with saline only.
# Twenty-four hours following the amyloidosis induction, the compound is added to a 1% solution of sucrose (vehicle) and distributed to animals in drinking bottles for a period of 5 days. Animals in the positive control group receive the vehicle only. Drinking solutions are made available ad libitum to each group of animals and the volume measured before and after use to calculate the consumption of each solution. Blood samples are collected for in vitro determination of plasma serum amyloid A levels.
# On day 6, mice are sacrificed, weighed and organs such as spleen are existed and fixed in acid alcohol. Spleen samples are processed, embedded in paraffin wax and cut inyo sections. Spleen sections from each animal are stained with the Congo Red staining solution and the splenic Amyloid A fibrils aggregation evaluated by image analysis. Results are expressed as % of AA fibrils deposited in the splenic perifollicular area. Raw data is analyzed.
# Mean of mouse body weight and the mean consumption of the drinking solution (ml) are compiled. Variation of the body weight before the induction and at the end of the assay is calculated (%). The dose level of the compound consumed (mg/kg/day) is calculated as well.
# P-values for Student t-test and Mann-Whitney tests comparing a group to the positive control are calculated using GraphPad Prism computer software. The mean of the image analysis reading of spleen serious for a group is expressed as percentage of the mean of the image analysis readings for the positive control group (% PC).
# [2] = molecular target: T2, Aβ(1-40) (Homo sapiens, UniProt P05067); test: Circular dichroism analysis, pre-incubation assay, β-sheet at 218 nm; type: biochemical; details: CD 218 nm, 0.02M Tris pH 7.4
# T2 construct: Prepare a fresh 40 μm solution of Aβ(1-40) in 0.02M Tris, pH 7.4; made in house; host or cells: chemical synthesis (FMOC), HPLC purified
# Procedure: The assay is conducted as follows:
# Instrument: JASCO J-715 Spectropolarimeter.
# Cell/cuvette: Hellma quartz (QS) with 1.0 mm pathlength Room temperature. Wavelength interval: 250 nm-190 nm.
# Band width: 1.0 nm Response time: 1 sec Scanning speed: 20 nm/min Number of accumulations/spectrum: 5
# 1. Prepare a fresh 40 μm solution of Aβ(1-40) in 0.02M Tris, pH 7.4.
# 2. Prepare a 1 mM solution of test compounds in 0.02M Tris, pH 7.4.
# 3. Combine equal volumes of the Aβ(1-40) and test compound solutions.
# 4. Incubate the mixtures for 19 h.
# 5. Take the CD spectrum using the parameters above.
# 6. Return the mixtures to the incubator and incubate to 43 h.
# 7. Take the CD spectrum using the parameters above. • Inhibition of Aβ40 assembly/aggregation is determined by comparing the amount of b-sheet structure) appearing at lambda=218 nm) obtained in control and in treated sample at each timepoint.
# [3] = 6.25 mg/ml in drinking solution
# [4] = 12.5 mg/ml in drinking solution
# [5] = 25.0 mg/ml in drinking solution
# T2 sequence (P05067 672-711 limits assumed): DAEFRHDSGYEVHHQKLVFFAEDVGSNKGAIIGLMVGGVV
smiles,measurement,setting,value
"COc1cc2c(cc1OC)CN(CCCS(=O)(=O)O)CC2 [I, 3-[2-(6,7-dimethoxy-1,2,3,4-tetrahydroisoquinolinyl)]-1-propanesulfonic acid]","% PC (splenic AA fibrils, % of positive control)",[1]; [3],87 % PC
same,"% PC (splenic AA fibrils, % of positive control)",[1]; [4],76 % PC and 68 % PC
same,"% PC (splenic AA fibrils, % of positive control)",[1]; [5],69% PC
same,"Activity (in vivo, secondary amyloidosis)",[1],Moderate
"O=S(=O)(O)CCCN1CCCc2ccccc21 [III, 3-[1-(1,2,3,4-tetrahydroquinolinyl)]-1-propanesulfonic acid]","relative inhibition compared to Aβ alone, incubation time 0 h",[2],— (No effect compared to Aβ alone)
same,"relative inhibition compared to Aβ alone, incubation time 19 h",[2],+ (+: 0-25%)
same,"relative inhibition compared to Aβ alone, incubation time 43 h",[2],++ (++: 25-50%)
same,"% PC (splenic AA fibrils, % of positive control)",[1]; 3.5 mg/ml in drinking solution,113% PC
same,"% PC (splenic AA fibrils, % of positive control)",[1]; [3],87% PC
same,"% PC (splenic AA fibrils, % of positive control)",[1]; [4],54 % PC and 67 % PC and 56 % PC
same,"% PC (splenic AA fibrils, % of positive control)",[1]; [5],82 % PC and 77 % PC
same,"Activity (in vivo, secondary amyloidosis)",[1],Moderate
"COc1ccc2c(c1)CCN(CCCS(=O)(=O)O)C2 [IX, 3-[2-(6-methoxy-1,2,3,4-tetrahydroisoquinolinyl)]-1-propanesulfonic acid]","relative inhibition compared to Aβ alone, incubation time 0 h",[2],+ (+: 0-25%)
same,"relative inhibition compared to Aβ alone, incubation time 19 h",[2],+++ (+++: 50-75%)
same,"relative inhibition compared to Aβ alone, incubation time 43 h",[2],++ (++: 25-50%)
same,"% PC (splenic AA fibrils, % of positive control)",[1]; [3],74 % PC and 40 % PC
same,"% PC (splenic AA fibrils, % of positive control)",[1]; [4],64 % PC and 38 % PC
same,"Activity (in vivo, secondary amyloidosis)",[1],Active
"N[C@@H](Cc1cccc(CS(=O)(=O)O)c1)C(=O)O [LVXIII, 3-Sulfomethyl-L-phenylalanine]","relative inhibition compared to Aβ alone, incubation time 0 h",[2],— (No effect compared to Aβ alone)
same,"relative inhibition compared to Aβ alone, incubation time 19 h",[2],++++ (++++: 75-100%)
same,"relative inhibition compared to Aβ alone, incubation time 43 h",[2],— (No effect compared to Aβ alone)
"O=S(=O)(O)CCCN1CCc2ccccc21 [VII, 3-(1-indolinyl)-1-propanesulfonic acid]","relative inhibition compared to Aβ alone, incubation time 0 h",[2],+ (+: 0-25%)
same,"relative inhibition compared to Aβ alone, incubation time 19 h",[2],++ (++: 25-50%)
same,"relative inhibition compared to Aβ alone, incubation time 43 h",[2],++ (++: 25-50%)
same,"% PC (splenic AA fibrils, % of positive control)",[1]; [3],94 % PC and 91 % PC
same,"% PC (splenic AA fibrils, % of positive control)",[1]; [4],83% PC
same,"% PC (splenic AA fibrils, % of positive control)",[1]; [5],71 % PC and 97 % PC
same,"Activity (in vivo, secondary amyloidosis)",[1],Moderate
"CC(=O)NCCCS(=O)(=O)O [VIII, 3-acetylamino-1-propanesulfonic acid]","relative inhibition compared to Aβ alone, incubation time 0 h",[2],+ (+: 0-25%)
same,"relative inhibition compared to Aβ alone, incubation time 19 h",[2],++++ (++++: 75-100%)
same,"relative inhibition compared to Aβ alone, incubation time 43 h",[2],+++ (+++: 50-75%)
"O=C(NCCCS(=O)(=O)O)c1ccccc1 [X, 3-benzoylamino-1-propanesulfonic acid]","relative inhibition compared to Aβ alone, incubation time 0 h",[2],+ (+: 0-25%)
same,"relative inhibition compared to Aβ alone, incubation time 19 h",[2],++ (++: 25-50%)
same,"relative inhibition compared to Aβ alone, incubation time 43 h",[2],++ (++: 25-50%)
"O=S(=O)(O)CCCN1CCC2=C(CCCC2)C1 [XVIII, 3-[2-(1,2,3,4,5,6,7,8-octahydroisoquinolinyl)]-1-propanesulfonic acid]","% PC (splenic AA fibrils, % of positive control)",[1]; 3.13 mg/ml in drinking solution,74% PC
same,"% PC (splenic AA fibrils, % of positive control)",[1]; [3],86% PC
same,"Activity (in vivo, secondary amyloidosis)",[1],Moderate
"O=C[C@H](NCCCS(=O)(=O)O)[C@@H](O)[C@H](O)[C@H](O)CO [XX, 2-deoxy-2-(3-sulfopropyl)amino-d-glucose]","% PC (splenic AA fibrils, % of positive control)",[1]; [3],94% PC
same,"% PC (splenic AA fibrils, % of positive control)",[1]; [4],69% PC
same,"Activity (in vivo, secondary amyloidosis)",[1],Moderate
